Data reported in PubChem BioAssay (NCI).
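These data come from cells grown in 96-well plates and exposed to compound for 48 hours at five concentrations. The concentration for 50% growth inhibition is given as GI50. TGI is the concentration that stops growth completely.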

What was measured:
Experiment in all cases: NCI tumour cell line growth inhibition, 48 h
[1] = test system: DMS 273 small cell lung
[2] = test system: RXF-631 renal
[3] = test system: LXFL 529 NSCLC
[4] = test system: SNB-78 CNS
[5] = test system: DLD-1 colon
[6] = test system: XF 498 CNS
[7] = test system: KM20L2 colon
[8] = test system: M19-MEL melanoma
[9] = test system: MDA-N
[10] = test system: SN12K1 renal
[11] = test system: P388/ADR leukemia
[12] = test system: P388 leukemia

Compound | TGI [1] [µM] | TGI [2] [µM] | TGI [3] [µM] | TGI [4] [µM] | TGI [5] [µM] | TGI [6] [µM] | TGI [7] [µM] | TGI [8] [µM] | TGI [9] [µM] | also measured
Cc1cc2c(=O)cc(-c3ccc(Cl)cc3)oc2c(C(=O)O)c1C | > 100 | > 100 | > 100 | > 100 | > 100 | > 100 | > 100 | > 100 | – | –
CC(=O)Nc1ccc(C(=O)N[C@@H]2C(=O)N3[C@@H]2SC(C)(C)[C@@H]3C(=O)O)cn1 | – | – | – | – | – | – | – | – | > 100 | –
Cc1c(Cl)cccc1NC(=O)C(=O)C1C(=O)NC(=O)NC1=O | > 100 | – | > 100 | > 100 | > 100 | > 100 | > 100 | > 100 | – | –
CC(CN(CP(=O)([O-])[O-])CP(=O)([O-])[O-])N(CP(=O)([O-])[O-])CP(=O)([O-])[O-].N[C@@H]1CCCC[C@@H]1N.[Pt+2] (configuration not stated) | > 100 | – | > 100 | > 100 | > 100 | – | > 100 | – | – | GI50 [1]: > 100 µM; GI50 [3]: > 100 µM; GI50 [4]: > 100 µM; GI50 [5]: > 100 µM; GI50 [7]: > 100 µM
O=Cc1ccc(C(F)(F)F)cc1.[C-]#[O+].[C-]#[O+].[C-]#[O+].[Cr] | – | – | – | – | – | – | – | – | 55.1 | GI50 [9]: 18 µM
CCCCCCCCCCCCC(Br)C(=O)SCCNC(=O)CCNC(=O)[C@@H](O)C(C)(C)COP(=O)(O)OP(=O)(O)OCC1OC(n2cnc3c(N)ncnc32)C(O)C1OP(=O)(O)O (some centres not stated) | > 56.5 | – | > 56.5 | > 56.5 | > 56.5 | > 56.5 | > 56.5 | > 56.5 | – | –
COc1nc2c(nc(N)n2C2OC(CO)C(O)C(O)C2O)c(=O)n1C (configuration not stated) | – | > 100 | > 100 | > 100 | > 100 | > 100 | > 100 | > 100 | – | –
O=c1c2ccccc2nc(-c2ccc(Cl)cc2)n1O | – | – | – | – | – | – | – | – | > 100 | –
NCCOc1ccccn1 | – | – | – | – | – | – | – | – | > 100 | –
CC(C)(C)c1ccccc1NS(=O)(=O)c1ccccc1 | > 100 | > 100 | > 100 | > 100 | – | > 100 | > 100 | > 100 | – | –
CCOc1ccc(NC(=O)C2=C(C)NC(C)=C(C(=O)Nc3ccc(OCC)cc3)C2c2ccc([N+](=O)[O-])cc2)cc1 | – | – | > 100 | > 100 | > 100 | 70.7 | 56.3 | > 100 | – | –
CCCCCCCCCCCCCC(=O)OCC1OC(OC)C(NC(=O)N(CCCl)N=O)C(O)C1O (configuration not stated) | 47.1 | 53.9 | 38.8 | 90.7 | 81.3 | 36.7 | 52.2 | – | – | –
Cc1cc(Cl)ccc1NC(=O)C1C(=O)N(c2ccc(Cl)cc2C)C(=O)/C1=N\N (configuration not stated) | – | – | > 100 | > 100 | – | > 100 | > 100 | > 100 | – | –
Cc1ccccc1NC(=O)c1[nH]c(=S)nc(N)c1-c1ccccc1C | > 100 | – | > 100 | > 100 | > 100 | – | > 100 | > 100 | – | –
O=C1C(c2ccccc2)=C(c2ccccc2)C(c2ccccc2)/C1=C1\C(=O)C(c2ccccc2)=C(c2ccccc2)C1c1ccccc1 (configuration not stated) | > 100 | – | > 100 | > 100 | > 100 | – | > 100 | > 100 | – | –
COc1ccc(Cc2ccccc2C(=O)O)c2ccccc12 | – | – | – | – | – | – | – | – | 74.4 | –
C[Si](C)(C)/C(Br)=C\CCN1C(=O)CCC1O (configuration not stated) | > 100 | – | > 100 | > 100 | – | > 100 | > 100 | > 100 | – | –
C/C=C/C1(NS(=O)(=O)c2ccc(C)cc2)CCC(C(C)(C)C)CC1 (configuration not stated) | 31.5 | 71.8 | > 100 | 64.1 | > 100 | 39.3 | 38.7 | 41 | – | –

Compound | TGI [1] [µM] | TGI [2] [µM] | TGI [3] [µM] | TGI [4] [µM] | TGI [5] [µM] | TGI [6] [µM] | TGI [7] [µM] | TGI [8] [µM] | TGI [9] [µM] | also measured
O=C(CC1C(=O)Nc2ccccc2S1=O)Nc1cccc(Cl)c1 (configuration not stated) | – | – | > 100 | > 100 | > 100 | > 100 | > 100 | > 100 | 56.1 | –
CC(C)(C)c1cc(C(O)(C(F)(F)F)C(F)(F)F)c2c(c1)C(C(F)(F)F)(C(F)(F)F)OC(c1ccccc1)(C(C)(C)C)N2 (configuration not stated) | 13.6 | – | 12.5 | 24.1 | 14.6 | 6.24 | 21 | 13.8 | – | –
O=Cc1cc(O)c(O)c(O)c1-c1c(C=O)cc(O)c(O)c1O | > 100 | – | > 100 | > 100 | > 100 | – | > 100 | > 100 | – | –
CC(C)(C)c1ccc(-c2nnc(SCc3ccc(Cl)cc3)n2-c2cccc(C(F)(F)F)c2)cc1 | – | – | – | – | – | – | – | – | > 100 | –
CC(=O)OCCOCNC(=S)N/N=C(\C)c1ccco1 | > 100 | > 100 | > 100 | > 100 | > 100 | – | > 100 | > 100 | – | –
CCN(CCCl)CCNc1c2ccccc2nc2ccc(OC)cc12 | 2.02 | 4.4 | 1.87 | 4.68 | 3.46 | 2.43 | 3.45 | 2.24 | – | TGI [10]: 3.08 µM; TGI [11]: 2290 nM; TGI [12]: 580 nM
O=C1c2cccnc2-c2nc(-c3ccc([N+](=O)[O-])cc3)cc3c2c1nc1ccccc13 | – | – | – | – | – | – | – | – | 3.22 | GI50 [9]: 1.75 µM
O=C(O)/C(Cl)=C(/Cl)C(=O)Nc1cccc(Cl)c1 | 18.9 | 49.1 | 30.3 | 61 | 34 | 34.3 | 47.3 | 30.4 | 37.4 | –
O=S1(=O)CSc2ccc3ccccc3c2-c2c1ccc1ccccc21 | > 100 | > 100 | > 100 | > 100 | > 100 | > 100 | – | > 100 | – | –
O=C(/C=C/c1ccccc1F)C(c1ccccc1)c1ccccc1 | 38.1 | – | 12 | 34.8 | 12.7 | 3.56 | 15.6 | – | – | –
COc1ccccc1NC(=O)C1=C(C)NC(C)=C(C(=O)Nc2ccccc2OC)C1c1ccc(C(C)C)cc1 | > 100 | > 100 | > 100 | – | > 100 | > 100 | > 100 | > 100 | – | –
C[C@H](NC(=O)OC1C2C=CC(O)C1CC2)c1ccccc1 (some centres not stated) | > 100 | – | > 100 | > 100 | > 100 | > 100 | > 100 | – | – | –
Cc1ccc(S(=O)(=O)N2CCCCC2CCO)cc1 (configuration not stated) | > 100 | – | > 100 | > 100 | > 100 | – | > 100 | > 100 | – | –
Cn1cc(C(=O)C2CCCCC2)ccc1=O | > 100 | > 100 | – | > 100 | > 100 | > 100 | > 100 | – | – | –
CCOC1NC(=O)Oc2ccccc21 (configuration not stated) | – | – | – | – | – | – | – | – | > 100 | –
Cc1cc(Cl)ccc1N1C(=O)C(=O)C(c2nc3ccccc3s2)C(=O)C1=O | > 100 | > 100 | > 100 | > 100 | > 100 | > 100 | > 100 | – | – | –
O=C1/C(=C/c2ccc(O)cc2)CCC1CNc1ccc(Cl)cc1 (configuration not stated) | 12.1 | 32.1 | 2.39 | 33.8 | 2.97 | – | 14.2 | 12.5 | 20.9 | –
CC(=O)O[C@H]1CC[C@@]2(C)C(=CC[C@@H]3C2CC[C@]2(C)Nc4oncc4CC32)C1 (some centres not stated) | 73.5 | > 100 | 26.5 | – | > 100 | 84.4 | > 100 | > 100 | – | –
